This note sets out measurements from PubChem BioAssay AID1259411 (Chemical Carcinogenesis Research Information System (CCRIS), 2018).

This data set deals with rodent carcinogenicity bioassays, tumor incidence. Description: CCRIS carcinogenicity studies. The settings on record: Dose: 0, Dose: 0. The method, boiled down:
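Archive of carcinogenicity, mutagenicity, tumor promotion and tumor inhibition results drawn from journals, NCI reports and other sources, expert-reviewed; covers 1985-2011 and is no longer updated.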

Active and inactive are the calls of the source. The rule behind the calls is not given here.

For the compound `CCn1c2ccccc2c2cc(N)ccc21`, the carcinogen call reads like this: (Species: MOUSE, Strain/Sex: B6C3F1/FEMALE, Route: ORAL, 800, 1200 PPM IN DIET FOR 78 WK (STUDY DURATION: 95-97 WK), 800, 1200 PPM IN DIET FOR 78 WK (STUDY DURATION: 95-97 WK), Tumor Site: Type of Lesion: LIVER: HEPATOCELLULAR CARCINOMA) “active; positive”; (Species: MOUSE, Strain/Sex: B6C3F1/MALE, Route: ORAL, 800, 1200 PPM IN DIET FOR 78 WK (STUDY DURATION: 94-96 WK), 800, 1200 PPM IN DIET FOR 78 WK (STUDY DURATION: 94-96 WK), Tumor Site: Type of Lesion: LIVER: HEPATOCELLULAR CARCINOMA, HEPATOCELLULAR ADENOMA OR CARCINOMA) “active; positive”; (Species: RAT, Strain/Sex: F344/FEMALE, Route: ORAL, 800, 2000 PPM IN DIET FOR 78 WK (STUDY DURATION: 105-110 WK), 800, 2000 PPM IN DIET FOR 78 WK (STUDY DURATION: 105-110 WK), Tumor Site: Type of Lesion: LIVER: NEOPLASTIC NODULE OR HEPATOCELLULAR CARCINOMA, UTERUS OR ENDOMETRIUM: ADENOCARCINOMA (NOS), EAR (ZYMBAL GLAND): S, Tumor Site: Type of Lesion: LIVER: NEOPLASTIC NODULE OR HEPATOCELLULAR CARCINOMA, UTERUS OR ENDOMETRIUM: ADENOCARCINOMA (NOS), EAR (ZYMBAL GLAND): S) “active; positive”; (Species: RAT, Strain/Sex: F344/MALE, Route: ORAL, 800, 2000 PPM IN DIET FOR 78 WK (STUDY DURATION: 104-109 WK), 800, 2000 PPM IN DIET FOR 78 WK (STUDY DURATION: 104-109 WK), Tumor Site: Type of Lesion: INTEGUMENTARY SYSTEM: BASAL CELL OR SQUAMOUS CELL CARCINOMA OR SQUAMOUS CELL PAPILLOMA, LIVER: HEPATOCELLULAR CARCINOMA) “active; positive”.
`C[C@]12C=CC(=O)C=C1CC[C@@H]1[C@@H]2C(=O)C[C@@]2(C)[C@H]1CC[C@]2(O)C(=O)CO`: the carcinogen call reads like this: (Species: MOUSE, Strain/Sex: ICR/FEMALE, Route: ORAL, 0.25, 0.5, 1, 5 MG/KG/D FOR 18 MO (STUDY DURATION: 18 MO), 0.25, 0.5, 1, 5 MG/KG/D FOR 18 MO (STUDY DURATION: 18 MO)) “inactive; negative”; (Species: MOUSE, Strain/Sex: ICR/MALE, Route: ORAL, 0.25, 0.5, 1, 5 MG/KG/D FOR 18 MO (STUDY DURATION: 18 MO), 0.25, 0.5, 1, 5 MG/KG/D FOR 18 MO (STUDY DURATION: 18 MO)) “inactive; negative”.
Take `c1ccc2c(c1)ccc1cc3ccc4ccccc4c3cc12`: the carcinogen call (Species: MOUSE, Strain/Sex: SWISS/FEMALE, Route: DERMAL, 78 UG IN ACETONE (0.4%) 2/WK FOR 60 WK FOR A TOTAL DOSE OF 0, 9.4 MG (STUDY DURATION: 80 WK), 78 UG IN ACETONE (0.4%) 2/WK FOR 60 WK FOR A TOTAL DOSE OF 0, 9.4 MG (STUDY DURATION: 80 WK), Tumor Site: Type of Lesion: SKIN: CARCINOMA) is “active; positive”.
For the compound `O=C(O)c1cc2ccccc2c(N=Nc2ccc3ccccc3c2S(=O)(=O)O)c1O`, the carcinogen call is, setting by setting: (Species: MOUSE, Strain/Sex: SWISS-WEBSTER/FEMALE, Route: DERMAL, 1% IN 0.1 ML 0.1% SODIUM LAURYL SULFATE 1/WK FOR 18 MO (STUDY DURATION: 18 MO)) “inactive; negative”; (Species: MOUSE, Strain/Sex: SWISS-WEBSTER/MALE, Route: DERMAL, 1% IN 0.1 ML 0.1% SODIUM LAURYL SULFATE 1/WK FOR 18 MO (STUDY DURATION: 18 MO)) “inactive; negative”.
`CO[Si](CCC1CCC2OC2C1)(OC)OC` (stereo not drawn): the carcinogen call (Species: MOUSE, Strain/Sex: C3H/MALE, Route: DERMAL, 25 MG IN ACETONE 3/WK FOR DURATION OF STUDY (STUDY DURATION: LIFETIME), Tumor Site: Type of Lesion: SKIN: CARCINOMA) was “active; positive”.
`C[C@]12C=CC(=O)C=C1CC[C@@H]1[C@@H]2[C@@H](O)C[C@@]2(C)[C@H]1CC[C@]2(O)C(=O)CO`: the carcinogen call is “inactive; negative” (Species: RAT, Strain/Sex: SPRAGUE-DAWLEY/FEMALE, Route: GAVAGE, 3 MG/KG ADMINISTERED 1, 2, 4.5 OR 9 TIMES PER MO FOR 18 MO TO GIVE MEDIAN TOTAL DOSES OF 54, 108, 234, 468 MG/KG (STU, 3 MG/KG ADMINISTERED 1, 2, 4.5 OR 9 TIMES PER MO FOR 18 MO TO GIVE MEDIAN TOTAL DOSES OF 54, 108, 234, 468 MG/KG (STU) and “active; positive” (Species: RAT, Strain/Sex: SPRAGUE-DAWLEY/MALE, Route: ORAL, 40 UG/ML IN DRINKING WATER FOR AN AVERAGE DAILY DOSE OF 368 UG/KG FOR 104 WK (STUDY DURATION: 104 WK), Tumor Site: Type of Lesion: LIVER: HEPATOCELLULAR ADENOMA OR CARCINOMA).
As to `ClCC(Cl)Cl`, the carcinogen call (Species: MOUSE, Strain/Sex: B6C3F1/FEMALE, Route: GAVAGE, 195, 390 MG/KG/D, TWA, 195, 390 MG/KG/D, TWA, Tumor Site: Type of Lesion: LIVER: HEPATOCELLULAR CARCINOMA) is “active; positive”; the carcinogen call (Species: MOUSE, Strain/Sex: B6C3F1/MALE, Route: GAVAGE, 195, 390 MG/KG/D, TWA, 195, 390 MG/KG/D, TWA, Tumor Site: Type of Lesion: LIVER: HEPATOCELLULAR CARCINOMA) was “active; positive”; the carcinogen call (Species: RAT, Strain/Sex: OSBORNE-MENDEL/FEMALE, Route: GAVAGE, 46, 92 MG/KG/D, TWA, 46, 92 MG/KG/D, TWA) is “inactive; negative”; the carcinogen call (Species: RAT, Strain/Sex: OSBORNE-MENDEL/MALE, Route: GAVAGE, 46, 92 MG/KG/D, TWA, 46, 92 MG/KG/D, TWA) was “inactive; negative”.
`NS(=O)(=O)c1cc2c(cc1Cl)NCNS2(=O)=O`: the carcinogen call runs as follows: (Species: MOUSE, Strain/Sex: B6C3F1/FEMALE, Route: ORAL, 2500, 5000 PPM IN FEED FOR 103-104 WK (STUDY DURATION: 106 WK), 2500, 5000 PPM IN FEED FOR 103-104 WK (STUDY DURATION: 106 WK)) “inactive; negative”; (Species: MOUSE, Strain/Sex: B6C3F1/MALE, Route: ORAL, 2500, 5000 PPM IN FEED FOR 103-104 WK (STUDY DURATION: 106 WK), 2500, 5000 PPM IN FEED FOR 103-104 WK (STUDY DURATION: 106 WK), Tumor Site: Type of Lesion: LIVER: HEPATOCELLULAR ADENOMA OR CARCINOMA) “equivocal”; (Species: RAT, Strain/Sex: F344/FEMALE, Route: ORAL, 0.1% IN DIET FOR 104 WK (STUDY DURATION: 130 WK)) “inactive; negative”; (Species: RAT, Strain/Sex: F344/FEMALE, Route: ORAL, 250, 500, 2000 PPM IN FEED FOR 105-106 WK (STUDY DURATION: 106 WK), 250, 500, 2000 PPM IN FEED FOR 105-106 WK (STUDY DURATION: 106 WK)) “inactive; negative”; (Species: RAT, Strain/Sex: F344/MALE, Route: ORAL, 0.1% IN DIET FOR 104 WK (STUDY DURATION: 130 WK)) “inactive; negative”; (Species: RAT, Strain/Sex: F344/MALE, Route: ORAL, 250, 500, 2000 PPM IN FEED FOR 105-106 WK (STUDY DURATION: 106 WK), 250, 500, 2000 PPM IN FEED FOR 105-106 WK (STUDY DURATION: 106 WK)) “inactive; negative”.
As to `CC(C)Nc1nc(Cl)nc(NCC(=O)O)n1`, the carcinogen call was “inactive; negative” (Species: Mouse, Strain/Sex: Crl:CD-1(ICR)BR/Female, Route: Oral, 10, 30, 300, 900 ppm in diet for 18 mo, 10, 30, 300, 900 ppm in diet for 18 mo); “active; positive (only at highest dose)” (Species: Mouse, Strain/Sex: Crl:CD-1(ICR)BR/Male, Route: Oral, 10, 30, 300, 900 ppm in diet for 18 mo, 10, 30, 300, 900 ppm in diet for 18 mo, Tumor Site: Type of Lesion: Liver: Multiple hepatocellular adenomas (3/60 at 900 ppm vs. 0/60 in controls) Blood Vessels: Hemangiosarcomas (2/60 at); “inactive; negative” (Species: Rat, Strain/Sex: Crl:CD BR/Female, Route: Oral, 5, 15, 30, 300, 900 ppm in diet for 24 mo, 5, 15, 30, 300, 900 ppm in diet for 24 mo); “active; positive (at highest dose only); ca dpr describes as a possible adverse effect” (Species: Rat, Strain/Sex: Crl:CD BR/Male, Route: Oral, 5, 15, 30, 300, 900 ppm in diet for 24 mo, 5, 15, 30, 300, 900 ppm in diet for 24 mo, Tumor Site: Type of Lesion: Thyroid: Thyroid follicular cell adenoma).
As for `CN(C)CCN(Cc1ccsc1)c1ccccn1`, the carcinogen call (Species: RAT, Strain/Sex: SPRAGUE-DAWLEY/FEMALE, Route: ORAL, 500, 1000 PPM IN DRINKING WATER 5D/WK FOR LIFE (STUDY DURATION: 572-731 D), 500, 1000 PPM IN DRINKING WATER 5D/WK FOR LIFE (STUDY DURATION: 572-731 D)) is “inactive; negative” and the carcinogen call (Species: RAT, Strain/Sex: SPRAGUE-DAWLEY/MALE, Route: ORAL, 500, 1000 PPM IN DRINKING WATER 5D/WK FOR LIFE (STUDY DURATION: 515-576 D), 500, 1000 PPM IN DRINKING WATER 5D/WK FOR LIFE (STUDY DURATION: 515-576 D)) was “inactive; negative”.
